According to PMC5869189 (Frontiers in Immunology, 2018):

Test system: PBMC from healthy, seropositive donors
Format: cell-based, human

Row | Sequence | % Responders | Median SFC/10^6 PBMCs (IFN-g)
1 | MSAQVIQIGRQRFVGGLFWQ [BPSS1599_P1] | 81.3% | 189
2 | WWALRPVERRLSPRAALIAA [BPSS1599_P19] | 95.8% | 169
3 | IGSDKYNDRLSLRRAQAVKS [BPSL2522_P15] | 97.1% | 290
4 | RVEVEVVGTQEVQKTTVPAQ [BPSL2522_P23] | 97.1% | 361
5 | DQYAITPAFTPLLNDLATTL [BPSL0999_P12] | 83.0% | 358
6 | VRPAFIEALGDAARATGLPG [BPSS1525_P15] | 89.7% | 220
7 | RDKEAGVALRATFIVDPDNT [BPSL2096_P13] | 94.1% | 315
8 | NRRVEIYLRAPQAAQ [BPSL0999_P21] | 93.6% | 348
9 | LRIVGDFPDLRFEAWGLRDGKVA [BPSS0530_P44] | 90.7% | 225
10 | ECTPGTAHYAWARNGSNVRY [BPSS1599_P29] | 97.9% | 162
11 | DLDQDGLGLGRLGLRHARGV [BPSS0530_P6] | 90.7% | 288
12 | MSSLPVGPVAWSDGMLIETQ [BPSS0530_P1] | 93.0% | 258
13 | SLRRAQAVKSYLVSKGVPAN [BPSL2522_P16] | 82.9% | 317
14 | GAGIGALAGGGKGAAIGAGV [BPSL0999_P5] | 80.9% | 346
15 | IFAFSAAMPAEKLRQLLPQQ [BPSS0530_P36] | 95.3% | 298
16 | AELAARPEYRELQPYARQQA [BPSS1525_P20] | 92.3% | 216
17 | SQKITYQADTLFDFDKAVLK [BPSL2522_P10] | 91.4% | 297
18 | AGTVMNVGNQVSQAAGGIVV [BPSS1532_P54] | 80.6% | 189
19 | GGERMSDEHASVLAQEAPAR [BPSS1531_P30] | 91.4% | 213
20 | KLNHYSFGDVKGELIDQLGV [BPSL2096_P11] | 88.2% | 320
21 | ELERQGFQNFQPKRLDDLLP [BPSS1599_P16] | 83.3% | 142

Row | Sequence | % Responders | Median SFC/10^6 PBMCs (IFN-g)
22 | APGGWRLERYECTPGTAHYA [BPSS1599_P28] | 87.5% | 163
23 | FDLMVLRIDRGVAAAGYANT [BPSS1599_P5] | 89.6% | 129
24 | IQHVSVNNLNVGRSPEEILR [BPSL2096_P15] | 82.4% | 314
25 | RDGFAPGHLSLGAMVSRAIA [BPSS1599_P7] | 95.8% | 132
26 | KQTLAGSAMALRIVGDFPDL [BPSS0530_P43] | 100.0% | 299
27 | NQWTLEGVLYAK [BPSS1599_P43] | 81.3% | 120
28 | GALVGGVTGYNWQAIKNKLA [BPSL0999_P7] | 80.9% | 322
29 | HQASLRLGQTSNHGWGFTLL [BPSS0530_P4] | 83.7% | 239
30 | NASRTVSLDPRFIPPLLDTR [BPSS0530_P19] | 97.7% | 334
31 | RLNALPNPPRQIPYYAQSTY [BPSS0530_P40] | 81.4% | 219
32 | RLGLRHARGVFQDGTAFSLP [BPSS0530_P7] | 90.7% | 211
33 | IVEFAKLAKQFEERDAVLLG [BPSL2096_P7] | 85.3% | 304
34 | FEVESTDPFWKQTLAGSAMA [BPSS0530_P42] | 83.7% | 237
35 | ALPDGRWAYFAVRDHAFMPN [BPSS1599_P11] | 95.8% | 148
36 | RRGGRPRTERWWALRPVERR [BPSS1599_P18] | 97.9% | 172
37 | ATFIVDPDNTIQHVSVNNLN [BPSL2096_P14] | 91.2% | 344
38 | RMRLANLDAFDPLPPAMLYH [BPSS0530_P26] | 88.4% | 240
39 | PVAPVAPAITSQKITYQADT [BPSL2522_P9] | 88.6% | 353
40 | HFQQLERHLAHQASLRLGQT [BPSS0530_P3] | 83.7% | 253
41 | SLSRRNELRAEAVELAKKLK [BPSS1599_P3] | 89.6% | 156
42 | VGTQEVQKTTVPAQ [BPSL2522_P22] | 97.1% | 270

Row | Sequence | % Responders | Median SFC/10^6 PBMCs (IFN-g)
43 | AIFSEAKDRFCMDPATRAGN [BPSS1525_P13] | 92.3% | 200
44 | AHNQTLSQNRAQSVVNALAQ [BPSL0999_P16] | 85.1% | 350
45 | GALGGLLAFRSQTLDPAQAQ [BPSL0280_P29] | 93.1% | 463
46 | LEGAFYNGRRQPAPNWLGAF [BPSS1599_P9] | 85.4% | 126
47 | KGELIDQLGVRDKEAGVALR [BPSL2096_P12] | 97.1% | 317
48 | GPEMAFGDVELASRYRAVST [BPSS0530_P12] | 97.7% | 308
49 | LGAMVSRAIALEGAFYNGRR [BPSS1599_P8] | 89.6% | 99
50 | QIPYYAQSTYFEVESTDPFW [BPSS0530_P41] | 81.4% | 292
51 | NVPSSVTFATDQYAITPAFT [BPSL0999_P11] | 95.7% | 399
52 | ETGQLVTRLCWKSQLRSDEV [BPSS0530_P16] | 81.4% | 266
53 | EAVELAKKLKFDLMVLRIDR [BPSS1599_P4] | 85.4% | 137
54 | ASTSAQRVLSTGGGVADLIE [BPSS0530_P23] | 90.7% | 267
55 | AATAVMAASASAQSVPASRQ [BPSL2522_P2] | 88.6% | 273
56 | PATANAKCDGALVAQAPAPA [BPSL2522_P7] | 82.9% | 265
57 | FTVVAAKPGFNNHEENGQSA [BPSL2096_P2] | 88.2% | 323
58 | PLLNDLATTLNQNPQITASV [BPSL0999_P13] | 91.5% | 357
59 | RQTAMSNAQTLASQLVAAGQ [BPSL0280_P14] | 89.7% | 565
60 | DRELGYDHDDLQTSFEPLAM [BPSS0530_P30] | 88.4% | 310
61 | SQVANDNAVAAQVAGNLRT [BPSS1531_P41] | 80.0% | 197
62 | KLTMLAHDAMMSAAAQDRSI [BPSS1531_P19] | 88.6% | 226
63 | ETPVLPLRFEDRGDQVHICI [BPSS0530_P33] | 86.0% | 233

Row | Sequence | % Responders | Median SFC/10^6 PBMCs (IFN-g)
64 | ELCWRDAFWTPATANAKCDG [BPSL2522_P6] | 91.4% | 291
65 | TEQPDGSLKLNVPSSVTFAT [BPSL0999_P10] | 93.6% | 382
66 | SAQSVPASRQAVNDNWVNGT [BPSL2522_P3] | 88.6% | 267
67 | RFIPPLLDTRAHLVLRSLID [BPSS0530_P20] | 90.7% | 248
68 | VDKQWNLKKLIFAFSAAMPA [BPSS0530_P35] | 90.7% | 243
69 | LFDFDKAVLKPAGKQKLDEL [BPSL2522_P11] | 85.7% | 408
70 | VGLQAGAQSKAIVFLFMTQD [BPSL1445_P12] | 93.9% | 321
71 | GVALVAAAFVGASAVKAVAS [BPSS1532_P45] | 83.9% | 142
72 | DAARATGLPGADKQGVFTPS [BPSS1525_P16] | 82.1% | 197
73 | LAGVQVVQSNGNYSVFLSGG [BPSL0280_P22] | 93.1% | 464
74 | QGMGASNPIADNATEAGRAQ [BPSL0999_P19] | 97.9% | 375
75 | MLRQALARVIETPVLPLRFE [BPSS0530_P32] | 95.3% | 316
76 | VLPGVDEELADRELGYDHDD [BPSS0530_P29] | 93.0% | 234
77 | CIGKIVGWVITAVSFAAAAF [BPSS1532_P35] | 87.1% | 172
78 | TPEIRQDAEFGRQVYEATLC [BPSS1525_P11] | 84.6% | 184
79 | SDDPLPPPLETELAQAGDIA [BPSS0530_P9] | 90.7% | 283
80 | LRVERIAYQNNQWTLEGVLY [BPSS1599_P42] | 91.7% | 139
81 | HAEQALELRGINKPVLSNDE [BPSS1531_P26] | 85.7% | 219
82 | KVYTEGKGKRNPVTGNTCKQ [BPSL2522_P18] | 94.3% | 288
83 | LSPRAALIAATAACVVLGGA [BPSS1599_P20] | 97.9% | 150
84 | TQLLARLQWLDAAAKLERLL [BPSS1599_P35] | 93.8% | 145
